Two compounds from patent US8980872B2, “Agent for preventing and/or treating functional gastrointestinal disorder” (Aska Pharmaceutical Co., Ltd., priority 2008, dated 2015) can be followed below.

Each structure is given as a SMILES string.

For this assay, the system named is Water Avoidance Stress-Induced Hyperdefecation Model. As to the kind of experiment: Inhibition test of the number of stools using water avoidance stress-induced hyperdefecation model. Type of assay: in vivo, rat. How it is done: Each of rats was freely allowed to have an enteral nutritional supplement, ELENTAL (0.25 g/mL; manufactured by Ajinomoto Co., Inc.) contained in a water-feeding bottle for seven days before a treatment with TNBS (2,4,6-trinitrobenzene sulfonic acid). The rats were fasted from the day before the TNBS administration day, and drinking water instead of ELENTAL was contained in the water-feeding bottle. On the day of the TNBS treatment (the rat: 8-week-old), 10 mL of physiological saline was intrarectally injected to the rat under anesthetization with ethyl ether to wash the enteral content. After the washing, the rat was allowed to stand longer than 2 hours, and 1 mL of 5 or 30 mg/head of TNBS in 40% ethanol/physiological saline (vehicle) was applied (injected) through the rectal injection under anesthetization with pentobarbital. Further, a silicone plug was inserted to the anus of the rat to stay the TNBS solution in the injection site, and the surrounding of the anus was fixed with an adhesive cloth elastic bandage (Elastopore). After about four hours of the TNBS treatment, the Elastopore and the silicone plug were removed from the rat, and 10 mL of physiological saline was intrarectally injected to the rat to discharge the enteral content. The animal was conventionally bled for four weeks from the TNBS treatment to recover from colitis. Moreover, to each of positive control rats, alosetron was orally administered singly before one hour of the stress loading.
Moreover, to each of positive control rats, alosetron (10 mg/kg) was orally administered singly before one hour of the water-stress loading. On the day of the measurement of the number of stools (the rat: 12-week-old), the animal was allowed to stand on a block (10 cm×5 cm×10 cm) installed in a water bath (about 50×30×40 cm, water depth: 5 cm) for one hour. However, each of animals on which no water environment stress was loaded (normal group) was allowed to stand in a waterless bath. The total number of stools excreted for the one hour after the animal was allowed to stand in the water bath was measured as the number of stools. Moreover, the nature of stools were compared and examined.

Regarding `Cc1[nH]cnc1CN1CCc2c(c3ccccc3n2C)C1=O` [alosetron], the “number of stools excreted for one hour compared with the control group” value (alosetron 10 mg/kg orally, single dose one hour before water-stress loading, p<0.001, t-test) is given as “showed a significantly effect compared with the control group”.

`CO[C@H]1/C=C/O[C@@]2(C)Oc3c(C)c(O)c4c(O)c(c5c(nc6cc(C)ccn65)c4c3C2=O)NC(=O)/C(C)=C\C=C\[C@H](C)[C@H](O)[C@@H](C)[C@@H](O)[C@@H](C)[C@H](OC(C)=O)[C@@H]1C` [rifaximin]: for the setting “rifaximin 100 mg/kg orally for 9 days, rats recovered from TNBS colitis, p<0.001, Dunnett test”, the “number of stools excreted for one hour compared with the control” value is reported as “decreased the number of stools compared with the control”. In addition, where the note is “rifaximin 6.25, 25 and 100 mg/kg orally for 9 days”, the “dose dependence of the defecation inhibition effect” value is “depended on the dose”. The nature of stool result (rifaximin-administered group, orally for 9 days) was “normalization in the nature of stool was observed”. Under “rifaximin-administered group, concluded from number and nature of stools”, the “motility of the intestinal tract” value was “the motility of the intestinal tract was improved”.
